Reference: patent US7067666B2, “7-substituted camptothecin and camptothecin analogs and methods for producing the same” (priority 2003, dated 2006)
Values after ≈ are worked out from the molar mass of the structure shown.

Test: Solubility in methylene chloride (standard method for ascertaining lipophilicity)
Format: physicochemical
Conditions: not given
Source text: Throughout the present application many CPT compounds have been defined with a substituent X as shown in structure I or II where X is defined and many substituents are shown. With the exception of the simple substituents where R is C1-5 alkyl (which can be prepared by the method of Sawada et al. (Chem. Pharm. Bull. 39, 2574-2580 ([…]))), the other compounds recited herein can not be made by conventional methods, but require, to the best of the inventors' knowledge, the use of the method of the present invention. Using the method of Sawada et al, the yield of alkyl became progressively lower essentially terminating where R is C5 alkyl. All other R substituents shown herein can be made only by the present method involving Grignard reactions, especially analogs like 7-t-butyl-10,11-methylenedioxy-CPT, 7-trimethylsilylmethyl-10,11-methylenedioxy-CPT, 7-naphthylmethyl-10,11-methylenedioxy-CPT, 7-p-fluorophenyl-10,11-methylenedioxy-CPT, 7-p-trifluoromethyl-10,11-methylenedioxy-CPT, and 7-p-tolyl-10,11-methylenedioxy-CPT. A number of compounds made by this method have shown unusual properties. For example, Table 1 gives the methylene chloride solubility of a number of compounds which are made by the methods described by this patent. For example, 7-butyl-10-aminocamptothecin made by this procedure is remarkably lipophilic. 10-Aminocamptothecin has a solubility of —0.2 mg/ml. […] It has been found by several groups that lipophilic substituents at the 7 position have excellent activity in the inhibition of topoisomerase I and in in vitro and in vivo cancer therapy.
We have utilized a standard method for ascertaining the lipophilicity of a number of camptothecin analogs. This involves the solubility in methylene chloride. This solvent is an excellent solvent for fat-soluble compounds. As can be noted with only one exception, compounds with the 7-butyl substituent are considerably more soluble than those without this constituent. Thus camptothecin is soluble only to the extent of 0.6 mg/ml whereas 7-butyl-camptothecin has a solubility of 20 mg/ml. 10-Amino-camptothecin is soluble only to the extent of 0.2 mg/ml. Very unexpectedly, 7-butyl-10-amino-camptothecin is very soluble at 145 mg/ml. It is also conceivable that camptothecin analogs with 7-pentyl or 7-hexyl substituents or 7-cyclopentyl or 7-cyclohexyl substituents will have increased solubility.

Compound	Solubility [µg/mL]	solubility in methylene chloride [µg/mL]
CCC1(O)C(=O)OCc2c1cc1n(c2=O)Cc2cc3c(C)cccc3nc2-1 (centres unmarked) [Example 9-Methyl-CPT, 9-Methyl-CPT, reference compound]	100 (≈ 276 µM)	
CCCCc1c2c(nc3ccccc13)-c1cc3c(c(=O)n1C2)COC(=O)C3(O)CC (centres unmarked) [Example 7-Butyl-CPT, 7-butyl-camptothecin]	20000 (≈ 49400 µM)	20000 (≈ 49400 µM)
CC[C@@]1(O)C(=O)OCc2c1cc1n(c2=O)Cc2cc3cc(N)ccc3nc2-1 [Example 10-Amino-CPT, 10-Aminocamptothecin, reference compound]	200 (≈ 550 µM)	200 (≈ 550 µM)
CC[C@@]1(O)C(=O)OCc2c1cc1n(c2=O)Cc2cc3c(N)cccc3nc2-1 [Example 9-Amino-CPT, 9-Amino-CPT, reference compound]	<30	
CCC1(O)C(=O)OCc2c1cc1n(c2=O)Cc2cc3c(N)c4c(cc3nc2-1)OCO4 (centres unmarked) [9-Amino-10,11-MD-CPT, reference compound]	<20	
CCCCc1c2c(nc3ccc(O)cc13)-c1cc3c(c(=O)n1C2)COC(=O)[C@]3(O)CC [7-Butyl-10-OH-CPT]	<50	
CCCCc1c2c(nc3ccc(OC)cc13)-c1cc3c(c(=O)n1C2)COC(=O)C3(O)CC (centres unmarked) [7-Butyl-10-methoxy-CPT]	2000 (≈ 4600 µM)	
CC[C@@]1(O)C(=O)OCc2c1cc1n(c2=O)Cc2cc3cc(OC)ccc3nc2-1 [10-Methoxy-CPT, reference compound]	3000 (≈ 7930 µM)	
CC[C@@]1(O)C(=O)OCc2c1cc1n(c2=O)Cc2c-1nc1cc3c(cc1c2Cc1ccccc1)OCO3 [7-Benzyl-10,11-MD-CPT, 7-Benzyl-10,11-MD-20(S)-Camptothecin]	1800 (≈ 3730 µM)	
7-Butyl-9-methyl-CPT	180	
CCCCc1c2c(nc3ccc(N)cc13)-c1cc3c(c(=O)n1C2)COC(=O)[C@]3(O)CC [7-Butyl-10-Amino-CPT, 7-n-Butyl-10-Amino-20(S)-Camptothecin]	145000 (≈ 346000 µM)	
7-Benzyl-10,11-CPT	1800	
CC[C@@]1(O)C(=O)OCc2c1cc1n(c2=O)Cc2c-1nc1cc3c(cc1c2-c1ccc(F)cc1)OCO3 [7-p-Fluorophenyl-10,11-MD-CPT, 7-p-Fluorophenyl-10,11-MD-20(S)-Camptothecin]	2550 (≈ 5240 µM)	
CCCCc1c2c(nc3cc4c(cc13)OCCO4)-c1cc3c(c(=O)n1C2)COC(=O)C3(O)CC (centres unmarked) [7-Butyl-10,11-ED-CPT]	7000 (≈ 15100 µM)	
CCC(C)c1c2c(nc3ccccc13)-c1cc3c(c(=O)n1C2)COC(=O)C3(O)CC (centres unmarked) [7-(sec)Butyl-CPT]	33000 (≈ 81600 µM)	
CCC1(O)C(=O)OCc2c1cc1n(c2=O)Cc2cc3c([N+](=O)[O-])c4c(cc3nc2-1)OCO4 (centres unmarked) [9-Nitro-10,11-MD-CPT, reference compound]	250 (≈ 572 µM)	
CC[C@@]1(O)C(=O)OCc2c1cc1n(c2=O)Cc2c-1nc1cc3c(cc1c2-c1ccc(C)cc1)OCO3 [7-p-Tolyl-10,11-MD-CPT, 7-p-Tolyl-10,11-MD-20(S)-Camptothecin]	4600 (≈ 9530 µM)	
CC[C@@]1(O)C(=O)OCc2c1cc1n(c2=O)Cc2c-1nc1cc3c(cc1c2-c1ccc(Cl)cc1)OCO3 [7-p-Chlorophenyl-10,11-MD-CPT, 7-p-Chlorophenyl-10,11-MD-20(S)-Camptothecin]	6300 (≈ 12500 µM)	
CCC1(O)C(=O)OCc2c1cc1n(c2=O)Cc2cc3cc4c(cc3nc2-1)OCCO4 (centres unmarked) [10,11-ED-CPT, reference compound]	200 (≈ 492 µM)	
CCCCc1c2c(nc3cc4c(cc13)OCO4)-c1cc3c(c(=O)n1C2)COC(=O)[C@]3(O)CC [7-Butyl-10,11-MD-CPT]	8500 (≈ 19000 µM)	

Same assay, conditions: Solubility in CH2Cl2

Compound	Solubility [µg/mL]
CC[C@@]1(O)C(=O)OCc2c1cc1n(c2=O)Cc2cc3ccccc3nc2-1 [Camptothecin]	600 (≈ 1720 µM)
CC[C@@]1(O)C(=O)OCc2c1cc1n(c2=O)Cc2cc3cc(O)ccc3nc2-1 [Example 10-OH-CPT, 10-OH-CPT, reference compound]	<40
CC[C@@]1(O)C(=O)OCc2c1cc1n(c2=O)Cc2cc3cc4c(cc3nc2-1)OCO4 [10,11-MD-CPT, 10,11-methylenedioxy-CPT, reference compound]	<8

Same assay, conditions: organic solvent or mixture; methylene chloride; read-out: solubility in methylene chloride

Compound	Solubility [µg/mL]
CC[C@@]1(O)C(=O)OCc2c1cc1n(c2=O)Cc2cc3ccccc3nc2-1 [Camptothecin]	600 (≈ 1720 µM)
